In the supplement of paper PMC10307832:

Columns and labels:
Experiment in all cases: relative viability (nuclei count vs DMSO), 5 days (fraction); higher = more cells survive
[1] = compound: C=CC(=O)N1CCC[C@@H](n2nc(-c3ccc(Oc4ccccc4)cc3)c3c(N)ncnc32)C1 [Ibrutinib] + Cc1cc(Nc2cc(N3CCN(C)CC3)nc(Sc3ccc(NC(=O)C4CC4)cc3)n2)n[nH]1 [Tozasertib] (partner 0.1 µM)
How it was run: (§1)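 One day after seeding in 1536-well plates, lung cancer cell lines were dosed by pin tool. Dosing was either single-drug or a fixed anchor-drug dose plus five library-drug doses (not always all listed) in √10 steps. After 5 days, nuclei were stained in one fix-and-stain step and counted on 4× images, and relative viability is the nuclei count of treated wells over that of vehicle wells, given as the median of duplicate plates.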

[2] = compound: C=CC(=O)Nc1cc(-n2c(=O)ccc3cnc4ccc(-c5ccc(NS(C)(=O)=O)cc5)cc4c32)ccc1C [BMX-IN-1] + N=C(N)NC(=N)NCCc1ccccc1 [Phenformin] (partner 250 µM)
How it was run: as §1

[3] = compound: C=CC(=O)Nc1cc(-n2c(=O)ccc3cnc4ccc(-c5ccc(NS(C)(=O)=O)cc5)cc4c32)ccc1C [BMX-IN-1] + Nc1nc2[nH]cc(CCc3ccc(C(=O)N[C@@H](CCC(=O)O)C(=O)O)cc3)c2c(=O)[nH]1 [Pemetrexed] (partner 0.2 µM)
How it was run: as §1

[4] = compound: C=CCc1cccc(/C=N/NC(=O)CN2CCN(Cc3ccccc3)CC2)c1O [PAC-1] + Nc1nc2[nH]cc(CCc3ccc(C(=O)N[C@@H](CCC(=O)O)C(=O)O)cc3)c2c(=O)[nH]1 [Pemetrexed] (partner 0.2 µM)
How it was run: as §1

Cell Line | relative viability ([1]; first compound 0.005 µM) | relative viability ([1]; first compound 0.01581 µM) | relative viability ([1]; first compound 0.05 µM) | relative viability ([1]; first compound 0.1581 µM) | relative viability ([1]; first compound 0.5 µM) | relative viability ([2]; first compound 0.02 µM) | relative viability ([2]; first compound 0.2 µM) | relative viability ([2]; first compound 0.6325 µM) | relative viability ([2]; first compound 2 µM) | relative viability ([3]; first compound 0.02 µM) | relative viability ([3]; first compound 0.2 µM) | relative viability ([3]; first compound 0.6325 µM) | relative viability ([3]; first compound 2 µM) | relative viability ([4]; first compound 0.02 µM) | relative viability ([4]; first compound 0.06325 µM) | relative viability ([4]; first compound 0.2 µM) | relative viability ([4]; first compound 2 µM)
LU99A | 0.264 | 0.279 | 0.285 | 0.258 | 0.278 | 0.817 | 0.811 | 1.06 | 0.759 | 0.198 | 0.226 | 0.183 | 0.141 | 0.192 | 0.162 | 0.182 | 0.177
HCC-78 | 0.577 | 0.327 | 0.434 | 0.494 | 0.343 | 0.726 | 0.761 | 0.834 | 0.697 | 0.971 | 0.989 | 0.935 | 0.913 | 0.915 | 0.904 | 0.85 | 0.928
HCC-15 | 0.464 | 0.413 | 0.563 | 0.396 | 0.357 | 0.501 | 0.591 | 0.531 | 0.506 | 0.2 | 0.218 | 0.192 | 0.218 | 0.216 | 0.234 | 0.247 | 0.22
201T | 0.984 | 0.916 | 0.971 | 0.959 | 0.849 | 0.519 | 0.464 | 0.483 | 0.458 | 0.326 | 0.342 | 0.339 | 0.351 | 0.316 | 0.303 | 0.314 | 0.334
LCLC-103H | 0.493 | 0.495 | 0.531 | 0.527 | 0.439 | 0.304 | 0.389 | 0.319 | 0.317 | 0.444 | 0.546 | 0.467 | 0.418 | 0.468 | 0.419 | 0.436 | 0.451
RERF-LC-KJ | 0.59 | 0.5 | 0.467 | 0.537 | 0.544 | 0.439 | 0.408 | 0.42 | 0.416 | 0.468 | 0.448 | 0.48 | 0.456 | 0.509 | 0.463 | 0.483 | 0.449
NCI-H1650 | 0.329 | 0.36 | 0.4 | 0.394 | 0.302 | 0.493 | 0.44 | 0.446 | 0.413 | 0.354 | 0.354 | 0.541 | 0.325 | 0.365 | 0.387 | 0.321 | 0.387
NCI-H1355 | 0.601 | 0.518 | 0.517 | 0.62 | 0.491 | 0.397 | 0.477 | 0.453 | 0.481 | 1.1 | 1.1 | 1.06 | 1.04 | 1.01 | 1.06 | 1.01 | 1.11
NCI-H2085 | 0.853 | 0.628 | 0.623 | 0.855 | 0.697 | 0.664 | 0.68 | 0.81 | 0.707 | 0.968 | 0.823 | 0.923 | 0.909 | 0.945 | 0.885 | 0.953 | 1.03
